Assay results taken from article PMC8745223, “Novel 1,3,5-Triazinyl Aminobenzenesulfonamides Incorporating Aminoalcohol, Aminochalcone and Aminostilbene Structural Motifs as Potent Anti-VRE Agents, and Carbonic Anhydrases I, II, VII, IX, and XII Inhibitors” (International Journal of Molecular Sciences, 2021).
Values after ≈ are worked out from the molar mass of the structure shown.

Columns and labels:
[1] = tested on: T1, E. faecalis ATCC 29212 (EF); test: microbe, parasite or virus in culture; design: broth microdilution MIC in BHI, Alamar Blue read-out, 37 °C; details: Enterococcus faecalis, ATCC29212, 24 h
T1 construct: ATCC 29212
Procedure: (§1) The inhibition activity against enterococci was evaluated by the microtitration broth method according to the Clinical and Laboratory Standards Institute with some modifications. The compounds were dissolved in DMSO and serially diluted in Brain Hearth Infusion (BHI) to reach concentrations 256–2 µg/mL. […] The experiment was repeated at least three times. All the investigated compounds were tested on their anti-staphylococcal activity against three clinical isolates of methicillin-resistant Staphylococcus aureus (MRSA) and S. aureus ATCC 29213 as the reference and quality control strain.

[2] = tested on: T2, Enterococcus faecalis VRE 725 B; test: organism not typed; design: broth microdilution MIC in BHI, Alamar Blue read-out, 37 °C; details: 24 h
T2 construct: VRE 725B (vanA clinical isolate)
Procedure: as §1, with “strain. […] All the compounds were tested against Enterococcus faecalis ATCC 29212 as the reference strain and three isolates from American crows of vanA-carrying vancomycin-resistant E. faecalis (VRE), and the activities, expressed as minimum inhibitory concentrations (MICs), are listed in Table 3.” for “strain.”

[3] = tested on: T3, Enterococcus faecalis VRE 342 B; test: organism not typed; design: broth microdilution MIC in BHI, Alamar Blue read-out, 37 °C; details: 24 h
T3 construct: VRE 342 B (vanA clinical isolate)
Procedure: as §1

[4] = tested on: T4, Enterococcus faecalis VRE 368; test: organism not typed; design: broth microdilution MIC in BHI, Alamar Blue read-out, 37 °C; details: 24 h
T4 construct: VRE 368 (vanA clinical isolate)
Procedure: as §1

hCA IX = biological target: T5, hCA IX (Homo sapiens, UniProt Q16790); test: stopped-flow CO2 hydration assay; type: biochemical
T5 construct: gene CA9; recombinant
In short: (§2)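 Recombinant human carbonic anhydrase CO2 hydration was followed by stopped-flow for 10–100 s with 0.2 mM phenol red (557 nm), 20 mM Hepes pH 7.5, 20 mM Na2SO4 and 1.7–17 mM CO2. Enzyme and inhibitor (diluted to 0.005 nM in buffer) were preincubated 15 min at room temperature. Initial rates used at least six traces, with uncatalysed rates subtracted. Ki was fitted by non-linear least squares with Cheng–Prusoff equation, averaged over three or more determinations.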

hCA XII = biological target: T6, hCA XII (Homo sapiens, UniProt O43570); test: stopped-flow CO2 hydration assay; type: biochemical
T6 construct: gene CA12; recombinant
In short: as §2

hCA I = biological target: T7, hCA I (Homo sapiens, UniProt P00915); test: stopped-flow CO2 hydration assay; type: biochemical
T7 construct: gene CA1; recombinant
In short: as §2

hCA II = biological target: T8, hCA II (Homo sapiens, UniProt P00918); test: stopped-flow CO2 hydration assay; type: biochemical
T8 construct: gene CA2; recombinant
In short: as §2

hCA VII = biological target: T9, hCA VII (Homo sapiens, UniProt P43166); test: stopped-flow CO2 hydration assay; type: biochemical
T9 construct: gene CA7; recombinant
In short: as §2

T7 sequence (P00915 2-261): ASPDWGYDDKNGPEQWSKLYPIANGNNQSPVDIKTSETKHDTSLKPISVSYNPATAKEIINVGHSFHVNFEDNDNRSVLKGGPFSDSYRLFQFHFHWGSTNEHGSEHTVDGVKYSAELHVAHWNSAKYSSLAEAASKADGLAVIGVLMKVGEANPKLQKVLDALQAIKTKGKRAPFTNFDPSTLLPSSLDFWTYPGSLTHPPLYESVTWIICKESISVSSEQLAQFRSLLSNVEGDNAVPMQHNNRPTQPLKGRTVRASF
T6 sequence (O43570 25-354): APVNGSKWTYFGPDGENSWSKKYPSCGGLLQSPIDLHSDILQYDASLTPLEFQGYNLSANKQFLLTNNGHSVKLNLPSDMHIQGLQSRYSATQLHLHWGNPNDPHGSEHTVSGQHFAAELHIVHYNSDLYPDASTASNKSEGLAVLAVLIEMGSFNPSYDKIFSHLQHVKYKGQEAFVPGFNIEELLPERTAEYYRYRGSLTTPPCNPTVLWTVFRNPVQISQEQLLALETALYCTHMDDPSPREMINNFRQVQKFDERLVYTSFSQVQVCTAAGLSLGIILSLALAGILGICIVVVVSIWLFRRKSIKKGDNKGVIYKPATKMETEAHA
T9 sequence (P43166 whole entry): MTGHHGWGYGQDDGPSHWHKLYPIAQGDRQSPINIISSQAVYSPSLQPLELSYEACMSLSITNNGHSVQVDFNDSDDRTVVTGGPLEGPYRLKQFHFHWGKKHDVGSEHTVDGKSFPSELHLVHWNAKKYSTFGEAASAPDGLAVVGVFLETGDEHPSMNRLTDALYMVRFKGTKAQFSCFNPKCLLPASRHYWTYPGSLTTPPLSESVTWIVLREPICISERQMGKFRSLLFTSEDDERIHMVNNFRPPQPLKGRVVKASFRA

Row | SMILES | MIC [1] [µM] | MIC [2] [µM] | MIC [3] [µM] | MIC [4] [µM] | MIC [µM] / VRE 725 B ([2]; inhibitor) [µM] | Ki (hCA IX) [nM] | Ki (hCA XII) [nM] | Ki (hCA I) [nM] | Ki (hCA II) [nM] | Ki (hCA VII) [nM]
1 | NS(=O)(=O)c1ccc(CNc2nc(Cl)nc(NCc3ccc(S(N)(=O)=O)cc3)n2)cc1 [7 ^a] | 16.5 (≈ 7.98 µg/mL) | 131 (≈ 63.4 µg/mL) | 66 (≈ 31.9 µg/mL) | 33 (≈ 16 µg/mL) |  |  |  |  |  | 
2 | CC1(C)S[C@@H]2[C@H](NC(=O)[C@H](N)c3ccccc3)C(=O)N2[C@H]1C(=O)O [ampicillin] |  |  |  |  | 5.72 (≈ 2 µg/mL) |  |  |  |  | 
3 | NS(=O)(=O)c1ccc(Nc2nc(NCCCO)nc(Nc3ccc(/C=C/c4cccc(O)c4)cc3)n2)cc1 [compound 4, (E)-4-({4-[(3-Hydroxypropyl)amino]-6-{[4-(3-hydroxystyryl)phenyl]amino}-1,3,5-triazin-2-yl}amino)benzenesulfonamide] |  |  |  |  |  | 27.5 | 65.8 | 7520 | 3640 | 
4 | NS(=O)(=O)c1ccc(CNc2nc(Cl)nc(NCCCO)n2)cc1 [compound 5, 5] |  |  |  |  |  |  |  |  |  | 332
5 | NS(=O)(=O)c1ccc(CNc2nc(NCCCO)nc(Nc3ccc(/C=C/c4cccc(O)c4)cc3)n2)cc1 [compound 17, 17] | > 467 | > 467 | > 467 | 467 (≈ 256 µg/mL) |  | 22.2 | 493 | 358 | 46.8 | 
6 | NS(=O)(=O)c1ccc(CCNc2nc(Cl)nc(NCCCO)n2)cc1 [compound 18, 18] | 330 (≈ 128 µg/mL) | 661 (≈ 256 µg/mL) | 330 (≈ 128 µg/mL) | 661 (≈ 256 µg/mL) |  |  |  |  |  | 75.7
7 | NS(=O)(=O)c1ccc(CCNc2nc(NCCCO)nc(Nc3ccc(/C=C/c4ccccc4)cc3)n2)cc1 [compound 30, (E)-4-[2-({4-[(3-Hydroxypropyl)amino]-6-[(4-styrylphenyl)amino]-1,3,5-triazin-2-yl}amino)ethyl]benzenesulfonamide] | > 469 | > 469 | > 469 | > 469 |  | 12.1 | 7.6 | 5700 | 5130 | 
8 | NS(=O)(=O)c1ccc(CCNc2nc(NCC(O)CO)nc(Nc3ccc(/C=C/c4ccccc4)cc3)n2)cc1 (centres unmarked) [compound 31, (E)-4-{2-[(4-[(2,3-Dihydroxypropyl)amino]-6-[(4-styrylphenyl)amino]-1,3,5-triazin-2-yl)amino]ethyl}benzenesulfonamide] | > 455 | > 455 | > 455 | > 455 |  | 248 | 4.4 | 36.9 | 335 | 
9 | NS(=O)(=O)c1ccc(CCNc2nc(Nc3ccc(O)cc3)nc(Nc3ccc(/C=C/c4ccccc4)cc3)n2)cc1 [compound 32, (E)-4-{2-[(4-[(4-Hydroxyphenyl)amino]-6-[(4-styrylphenyl)amino]-1,3,5-triazin-2-yl)amino]ethyl}benzenesulfonamide] | 13.8 (≈ 8 µg/mL) | 55.2 (≈ 32 µg/mL) | 27.6 (≈ 16 µg/mL) | 27.6 (≈ 16 µg/mL) |  | 2470 | 5.9 | 90.6 | 7490 | 
10 | NS(=O)(=O)c1ccc(CCNc2nc(NCc3ccc(S(N)(=O)=O)cc3)nc(Nc3ccc(/C=C/c4ccccc4)cc3)n2)cc1 [compound 33] | 97.4 (≈ 64 µg/mL) | 194 (≈ 127 µg/mL) | 194 (≈ 127 µg/mL) | 389 (≈ 255 µg/mL) |  | 1970 | 6.2 | 48 | 57.9 | 
11 | NS(=O)(=O)c1ccc(CCNc2nc(NCC(O)CO)nc(Nc3ccc(/C=C/c4ccccc4O)cc3)n2)cc1 (centres unmarked) [compound 34, (E)-4-{2-[(4-[(2,3-Dihydroxypropyl)amino]-6-{[4-(2-hydroxystyryl)phenyl]amino}-1,3,5-triazin-2-yl)amino]ethyl}benzenesulfonamide] | > 443 | > 443 | > 443 | > 443 |  | 2710 | 8.5 | 1670 | 5630 | 
12 | NS(=O)(=O)c1ccc(CCNc2nc(Nc3ccc(O)cc3)nc(Nc3ccc(/C=C/c4ccccc4O)cc3)n2)cc1 [compound 35, 35] | > 429 | > 429 | > 429 | > 429 |  | 238 | 37.1 | 3940 | 5470 | 
13 | NS(=O)(=O)c1ccc(CCNc2nc(NCc3ccc(S(N)(=O)=O)cc3)nc(Nc3ccc(/C=C/c4ccccc4O)cc3)n2)cc1 [compound 36, (E)-4-{2-[(4-{[4-(2-Hydroxystyryl)phenyl]amino}-6-[(4-sulfamoylbenzyl)amino]-1,3,5-triazin-2-yl)amino]ethyl}benzenesulfonamide] | > 380 | > 380 | > 380 | > 380 |  | 2720 | 8.3 | 448 | 82 | 
14 | NS(=O)(=O)c1ccc(CCNc2nc(NCCCO)nc(Nc3ccc(/C=C/c4cccc(O)c4)cc3)n2)cc1 [compound 37, 37] | > 455 | > 455 | > 455 | > 455 |  | 26.4 | 601 | 675 | 73.5 | 
15 | NS(=O)(=O)c1ccc(CCNc2nc(NCC(O)CO)nc(Nc3ccc(/C=C/c4cccc(O)c4)cc3)n2)cc1 (centres unmarked) [compound 38, (E)-4-{2-[(4-[(2,3-Dihydroxypropyl)amino]-6-{[4-(3-hydroxystyryl)phenyl]amino}-1,3,5-triazin-2-yl)amino]ethyl}benzenesulfonamide] | > 443 | > 443 | > 443 | > 443 |  | 17.3 | 84.5 | 6730 | 4440 | 
16 | NS(=O)(=O)c1ccc(CCNc2nc(Nc3ccc(O)cc3)nc(Nc3ccc(/C=C/c4cccc(O)c4)cc3)n2)cc1 [compound 39, 39] | > 429 | > 429 | > 429 | > 429 |  | 876 | 68.5 | 742 | 154 | 
17 | NS(=O)(=O)c1ccc(CCNc2nc(NCc3ccc(S(N)(=O)=O)cc3)nc(Nc3ccc(/C=C/c4cccc(O)c4)cc3)n2)cc1 [compound 40, (E)-4-{2-[(4-{[4-(3-Hydroxystyryl)phenyl]amino}-6-[(4-sulfamoylbenzyl)amino]-1,3,5-triazin-2-yl)amino]ethyl}benzenesulfonamide] | 190 (≈ 128 µg/mL) | 190 (≈ 128 µg/mL) | 190 (≈ 128 µg/mL) | 380 (≈ 256 µg/mL) |  | 20.3 | 60.5 | 48.8 | 18.9 | 
18 | NS(=O)(=O)c1ccc(CCNc2nc(NCC(O)CO)nc(Nc3ccc(/C=C/c4ccc(O)cc4)cc3)n2)cc1 (centres unmarked) [compound 42, (E)-4-{2-[(4-[(2,3-Dihydroxypropyl)amino]-6-{[4-(4-hydroxystyryl)phenyl]amino}-1,3,5-triazin-2-yl)amino]ethyl}benzenesulfonamide] | 55.4 (≈ 32 µg/mL) | 221 (≈ 128 µg/mL) | 110 (≈ 63.5 µg/mL) | 221 (≈ 128 µg/mL) |  | 258 | 9.7 | 43.5 | 96.3 | 
19 | CN[C@H](CC(C)C)C(=O)N[C@H]1C(=O)N[C@@H](CC(N)=O)C(=O)N[C@H]2C(=O)N[C@H]3C(=O)N[C@H](C(=O)N[C@H](C(=O)O)c4cc(O)cc(O)c4-c4cc3ccc4O)[C@H](O)c3ccc(c(Cl)c3)Oc3cc2cc(c3O[C@@H]2O[C@H](CO)[C@@H](O)[C@H](O)[C@H]2O[C@H]2C[C@](C)(N)[C@H](O)[C@H](C)O2)Oc2ccc(cc2Cl)[C@H]1O [vancomycin] |  | 706 (≈ 1020 µg/mL) | 353 (≈ 512 µg/mL) | 353 (≈ 512 µg/mL) |  |  |  |  |  | 
